Experimental data from patent publication EP4635969A1, “NOVEL GLUCOCORTICOID, METHOD FOR PREPARING SAME, AND USE THEREOF” (Tianjin Pharmaceutical Biotechnology Co., Ltd., priority 2022, dated 2024).

These compounds were tested against T1, glucocorticoid receptor (GR) (Homo sapiens, UniProt P04150) (assay: Assay for agonist activity on glucocorticoid receptor (luciferase reporter, HEK293 cells transfected with pBIND-GR plasmid)). Details: HEK293 cells transfected with pBIND-GR, luciferase signal; read-out: GR agonist EC50.
T1 sequence (P04150 521-777): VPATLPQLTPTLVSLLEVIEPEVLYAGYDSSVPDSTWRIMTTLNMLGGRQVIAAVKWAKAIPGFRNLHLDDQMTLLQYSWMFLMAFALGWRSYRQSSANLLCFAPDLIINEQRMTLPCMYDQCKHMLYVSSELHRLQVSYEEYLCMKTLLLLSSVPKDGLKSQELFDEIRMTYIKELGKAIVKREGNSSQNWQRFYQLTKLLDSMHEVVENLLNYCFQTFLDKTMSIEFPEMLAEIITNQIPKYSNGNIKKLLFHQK
Type: cell-based
Description: Pharmacological Example 1: Assay for Agonist Activity on Glucocorticoid Receptor (GR)
The test compounds were subjected to a 4-fold serial dilution starting from an initial concentration of 10 µ M, generating a 10-point concentration gradient with duplicate wells for each concentration. The blank control consisted of 0.1 % DMSO.
The HEK293 stable cell line […] transfected with glucocorticoid receptor (GR) (ICE Bioscience, Lot No. TYP-20220519) was cultured in Dulbecco's Modified Eagle Medium (DMEM) supplemented with 10% fetal bovine serum (FBS) and 200 µ g/ml Hygromycin B in a cell incubator containing 5% CO2 at 37 °C. The spent medium was aspirated and the cells were washed once with phosphate-buffered saline (PBS). Then, 1 mL of TrypLE™ Express solution was added, and the cells were incubated at 37 °C for approximately 2 min. When the cells detached from the bottom of the cell culture dish, approximately 5 mL of pre-warmed complete medium at 37 °C was added. The cell suspension was gently pipetted with a pipette to dissociate clumped cells. The cell suspension was transferred to a sterile centrifuge tube and centrifuged at 1000 rpm for 5 min to pellet the cells for experiments or subculture.
HEK293 cells were digested and seeded into 6-cm culture dishes. The pBIND-GR plasmid was transfected into the HEK293 cells using a transfection reagent, resulting in HEK293 cells successfully transfected with the pBIND-GR plasmid. The cells were resuspended in phenol red-free DMEM medium containing 5% charcoal-stripped serum, counted, and then seeded into 96-well plates. The test compounds were added, and the plates were then incubated in an incubator. The luminescence signal values were measured using a multimode microplate reader following the instructions of the luciferase assay kit. The EC50 values of each test compound were calculated using the nonlinear fitting formula with GraphPad Prism 8.0 software.

SMILES | EC50
C[C@]12C=CC(=O)C=C1[C@@H](F)C[C@H]1[C@@H]3C[C@H]4OC(c5ccc(NCC6CCOC6=O)cc5)O[C@@]4(C(=O)CO)[C@@]3(C)C[C@H](O)[C@@]12F (stereo partly drawn) [Compound 15, (2S,6aS,6bR,7S,8aS,8bS,11aR,12aS,12bS)-2,6b-Difluoro-7-hydroxy-8b-(2-hydroxyacetyl)-6a,8a-dimethyl-10-(4-(((2-oxotetrahydrofuran-3-yl)methyl)amino)phenyl)-1,2,6a,6b,7,8,8a,8b,11a,12,12 a,12b-dodecahydro-4H-naphtho[2',1':4,5]indeno[1,2-d][1,3]dioxol-4-one] | 6.12 nM
C[C@]12C=CC(=O)C=C1[C@@H](F)C[C@H]1[C@@H]3C[C@H]4OC(c5cnc(CSC6CCOC6=O)nc5)O[C@@]4(C(=O)CO)[C@@]3(C)C[C@H](O)[C@@]12F (stereo partly drawn) [Compound 52, (2S,6aS,6bR,7S,8aS,8bS,11aR,12aS,12bS)-2,6b-Difluoro-7-hydroxy-8b-(2-hydroxyacetyl)-6a,8a-dimethyl-10-(2-(((2-oxotetrahydrofuran-3-yl)thio)methyl)pyrimidin-5-yl)-1,2,6a,6b,7,8,8a,8b,11a, 12,12a,12b-dodecahydro-4H-naphtho[2',1':4,5]indeno[1,2-d][1,3]dioxol-4-one] | 6.92 nM
C[C@]12C=CC(=O)C=C1CC[C@@H]1[C@@H]2[C@@H](O)C[C@@]2(C)[C@H]1C[C@H]1OC(c3ccc(CNC4COC(=O)C4)cc3)O[C@]12C(=O)CO (stereo partly drawn) [Compound 33, (6aR,6bS, 7S,8aS,8bS,11aR,12aS,12bS)-7-Hydroxy-8b-(2-hydroxyacetyl)-6a,8a-dimethyl-10-(4-(( (5-oxotetrahydrofuran-3-yl)amino)methyl)phenyl)-1,2,6a,6b,7,8,8a,8b,11a,12,12a,12b-dodecahydr o-4H-naphtho[2',1':4,5]indeno[1,2-d][1,3]dioxol-4-one] | 4.38 nM
C[C@]12C=CC(=O)C=C1CC[C@H]1[C@@H]3C[C@H]4OC(c5ccc(CC6CCOC6=O)cc5)O[C@@]4(C(=O)CO)[C@@]3(C)C[C@H](O)[C@@]12F (stereo partly drawn) [Compound 43, (6aS,6bR,7S,8aS,8bS,11aR,12aS,12bS)-6b-Fluoro-7-hydroxy-8b-(2-hydroxyacetyl)-6a,8a-dimethyl-10-(4-((2-oxotetrahydrofuran-3-yl)methyl)phenyl)-1,2,6a,6b,7,8,8a,8b,11a,12,12a,12b-dodecah ydro-4H-naphtho[2',1':4,5]indeno[1,2-d][1,3]dioxol-4-one] | 7.71 nM
C[C@]12C=CC(=O)C=C1CC[C@H]1[C@@H]3C[C@H]4OC(c5ccc(COC6COC(=O)C6)cc5)O[C@@]4(C(=O)CO)[C@@]3(C)C[C@H](O)[C@@]12F (stereo partly drawn) [Compound 19, (6aS,6bR,7S,8aS,8bS,11aR,12aS,12bS)-6b-Fluoro-7-hydroxy-8b-(2-hydroxyacetyl)-6a,8a-dimethyl-10-(4-(((5-oxotetrahydrofuran-3-yl)oxy)methyl)phenyl)-1,2,6a,6b,7,8,8a,8b,11a,12,12a,12b-do decahydro-4H-naphtho[2',1':4,5]indeno[1,2-d][1,3]dioxol-4-one] | 0.91 nM
C[C@]12C=CC(=O)C=C1CC[C@H]1[C@@H]3C[C@H]4OC(c5ccc(NC6CCOC6=O)cc5)O[C@@]4(C(=O)CO)[C@@]3(C)C[C@H](O)[C@@]12F (stereo partly drawn) [Compound 42, (6aS,6bR,7S,8aS,8bS,11aR,12aS,12bS)-6b-Fluoro-7-hydroxy-8b-(2-hydroxyacetyl)-6a,8a-dimethyl-10-(4-((2-oxotetrahydrofuran-3-yl)amino)phenyl)-1,2,6a,6b,7,8,8a,8b,11a,12,12a,12b-dodecahy dro-4H-naphtho[2',1':4,5]indeno[1,2-d][1,3]dioxol-4-one] | 19.5 nM
C[C@]12C=CC(=O)C=C1[C@@H](F)C[C@H]1[C@@H]3C[C@H]4OC(c5ccc(CSC6CCOC6=O)cn5)O[C@@]4(C(=O)CO)[C@@]3(C)C[C@H](O)[C@@]12F (stereo partly drawn) [Compound 49, (2S,6aS,6bR,7S,8aS,8bS,11aR,12aS,12bS)-2,6b-Difluoro-7-hydroxy-8b-(2-hydroxyacetyl)-6a,8a-dimethyl-10-(5-(((2-oxotetrahydrofuran-3-yl)thio)methyl)pyridin-2-yl)-1,2,6a,6b,7,8,8a,8b,11a,12, 12a,12b-dodecahydro-4H-naphtho[2',1':4,5]indeno[1,2-d][1,3]dioxol-4-one] | 1.12 nM
C[C@]12C=CC(=O)C=C1CC[C@@H]1[C@@H]2[C@@H](O)C[C@@]2(C)[C@H]1C[C@H]1OC(c3ccc(COC4COC(=O)C4)cc3)O[C@]12C(=O)CO (stereo partly drawn) [Compound 31, (6aR,6bS, 7S,8aS,8bS,11aR,12aS,12bS)-7-Hydroxy-8b-(2-hydroxyacetyl)-6a,8a-dimethyl-10-(4-(( (5-oxotetrahydrofuran-3-yl)oxy)methyl)phenyl)-1,2,6a,6b,7,8,8a,8b,11a,12,12a,12b-dodecahydro-4H-naphtho[2',1':4,5]indeno[1,2-d][1,3]dioxol-4-one] | 8.13 nM
C[C@]12C=CC(=O)C=C1[C@@H](F)C[C@H]1[C@@H]3C[C@H]4OC(c5ccc(NC(=O)C6COC(=O)C6)cc5)O[C@@]4(C(=O)CO)[C@@]3(C)C[C@H](O)[C@@]12F (stereo partly drawn) [Compound 2, N-(4-((2S,6aS,6bR,7S,8aS,8bS,11aR,12aS,12bS)-2,6b-Difluoro-7-hydroxy-8b-(2-hydroxyacetyl)-6a,8a-dimethyl-4-oxo-2,4,6a,6b,7,8,8a,8b,11a,12,12a,12b-dodecahydro-1H-naphtho[2',1':4,5]indeno[1,2-d][1,3]dioxol-10-yl)phenyl)-5-oxotetrahydrofuran-3-carboxamide] | 12.2 nM
C[C@]12C=CC(=O)C=C1CC[C@H]1[C@@H]3C[C@H]4OC(c5ccc(C[S+]([O-])C6CCOC6=O)cc5)O[C@@]4(C(=O)CO)[C@@]3(C)C[C@H](O)[C@@]12F (stereo partly drawn) [Compound 56, (6aS,6bR,7S,8aS,8bS,11aR,12aS,12bS)-6b-Fluoro-7-hydroxy-8b-(2-hydroxyacetyl)-6a,8a-dimethyl-10-(4-(((2-oxotetrahydrofuran-3-yl)sulfinyl)methyl)phenyl)-1,2,6a,6b,7,8,8a,8b,11a,12,12a,12b-dodecahydro-4H-naphtho[2',1':4,5]indeno[1,2-d][1,3]dioxol-4-one] | 1.56 nM
C[C@]12C=CC(=O)C=C1CC[C@H]1[C@@H]3C[C@H]4OC(c5ccc(OC6CCOC6=O)cc5)O[C@@]4(C(=O)CO)[C@@]3(C)C[C@H](O)[C@@]12F (stereo partly drawn) [Compound 40, (6aS,6bR,7S,8aS,8bS,11aR,12aS,12bS)-6b-Fluoro-7-hydroxy-8b-(2-hydroxyacetyl)-6a,8a-dimethyl-10-(4-((2-oxotetrahydrofuran-3-yl)oxy)phenyl)-1,2,6a,6b,7,8,8a,8b,11a,12,12a,12b-dodecahydr o-4H-naphtho[2',1':4,5]indeno[1,2-d][1,3]dioxol-4-one] | 30.7 nM
C[C@]12C=CC(=O)C=C1CC[C@@H]1[C@@H]2[C@@H](O)C[C@@]2(C)[C@H]1C[C@H]1OC(c3ccc(CSC4COC(=O)C4)cc3C#N)O[C@]12C(=O)CO (stereo partly drawn) [Compound 32, 2-((6aR,6bS,7S,8aS,8bS,11aR,12aS,12bS)-7-Hydroxy-8b-(2-hydroxyacetyl)-6a,8a-dimethyl-4-oxo-2,4,6a,6b,7,8,8a,8b,11a,12,12a,12b-dodecahydro-1H-naphtho[2',1':4,5]indeno[1,2-d][1,3]dioxol-10-yl)-5-(((5-oxotetrahydrofuran-3-yl)thio)methyl)benzonitrile] | 3.67 nM
C[C@]12C=CC(=O)C=C1[C@@H](F)C[C@H]1[C@@H]3C[C@H]4OC(c5ccc(CS(=O)(=O)C6CCOC6=O)cc5)O[C@@]4(C(=O)CO)[C@@]3(C)C[C@H](O)[C@@]12F (stereo partly drawn) [Compound 58, (2S,6aS,6bR,7S,8aS,8bS,11aR,12aS,12bS)-2,6b-Difluoro-7-hydroxy-8b-(2-hydroxyacetyl)-6a,8a-dimethyl-10-(4-(((2-oxotetrahydrofuran-3-yl)sulfonyl)methyl)phenyl)-1,2,6a,6b,7,8,8a,8b,11a,12, 12a,12b-dodecahydro-4H-naphtho[2',1':4,5]indeno[1,2-d][1,3]dioxol-4-one] | 3.67 nM
C[C@]12C=CC(=O)C=C1CC[C@H]1[C@@H]3C[C@H]4OC(c5ccc(COC6COC(=O)C6)cc5)O[C@@]4(C(=O)CO)[C@@]3(C)C[C@H](O)[C@@]12Cl (stereo partly drawn) [Compound 25, (6aS,6bR,7S,8aS,8bS,11aR,12aS,12bS)-6b-Chloro-7-hydroxy-8b-(2-hydroxyacetyl)-6a,8a-dimethyl-10-(4-(((5-oxotetrahydrofuran-3-yl)oxy)methyl)phenyl)-1,2,6a,6b,7,8,8a,8b,11a,12,12a,12b-do decahydro-4H-naphtho[2',1':4,5]indeno[1,2-d][1,3]dioxol-4-one] | 1.3 nM
